Like-named read-outs stand apart in the source and are kept apart here.
Legend:
TC1-Lu = experiment: MTT cytotoxicity assay, TC1-Lu; conditions: read-out: cytotoxicity IC50 TC1-Lu
Procedure: (§1) Cell lines and cytotoxicity assays: All cell lines were obtained from the American Type Culture Collection (ATCC) and cultured in the specified medium supplemented with 10% fetal bovine serum, 100 IU/mL penicillin, and 100 μg/mL streptomycin at 37° C. in a humidified 5% CO2/95% air incubator. […] To assess drug cytotoxicity, cells were seeded at 2,500 cells/well (10,000 cells/well for MM lines) in 100 μL medium in 96-well plate and after 24 treated with compounds for 72 h, incubated according to the manufacturer's protocol with the Thiazolyl Blue Tetrazolium Bromide (Sigma, M2128) and A570 measured using a Benchmark Plus microplate spectrophotometer (BIO-RAD). IC50 data was analyzed by Graphpad Prism software. In the chirality studies the cells were treated with compounds for 48 h, and the cells were incubated and measured via the preceeding protocols.

SUM149 = experiment: cells; conditions: SUM149, read-out: cytotoxicity IC50 SUM149
Procedure: as §1

KLE = experiment: MTT cytotoxicity assay, KLE; conditions: read-out: cytotoxicity IC50 KLE, Tables 3A/4B/4C
HCC1395 = experiment: MTT cytotoxicity assay, HCC1395; conditions: Homo sapiens, HCC1395, read-out: cytotoxicity IC50 HCC1395
SKOV3 = experiment: MTT cytotoxicity assay, SKOV3; conditions: Homo sapiens
Procedure: (§2) Cell lines and cytotoxicity assays: All cell lines were obtained from the American Type Culture Collection (ATCC) and cultured in the specified medium supplemented with 10% fetal bovine serum, 100 IU/mL penicillin, and 100 μg/mL streptomycin at 37° C. in a humidified 5% CO2/95% air incubator. […] To assess drug cytotoxicity, cells were seeded at 2,500 cells/well (10,000 cells/well for MM lines) in 100 μL medium in 96-well plate and after 24 treated with compounds for 72 h, incubated according to the manufacturer's protocol with the Thiazolyl Blue Tetrazolium Bromide (Sigma, M2128) and A570 measured using a Benchmark Plus microplate spectrophotometer (BIO-RAD). IC50 data was analyzed by Graphpad Prism software.

HCT116 = experiment: MTT cytotoxicity assay, HCT116
ES2 = experiment: MTT cytotoxicity assay, ES2
PEA1 = experiment: cells; conditions: read-out: cytotoxicity IC50 PEA1
Procedure: as §1

in vivo = conditions: female, CD1, mouse, ip
Procedure: Pilot safety studies were performed in CD1 mice (n=3/dose group of healthy female mice aged 6-8 weeks) with increasing single doses delivered i.p. and the NOAEL (no-observed-adverse-effect level) was selected for further animal studies. […] Bortezomib was dissolved in a minimal amount of DMSO and further diluted with saline before injection in a dose finding study. […] To measure on-target inhibition of proteasome activity in mice, a leg muscle of CD-1 mice was transduced with the 4UbFL reporter construct. […] Briefly, mouse leg muscle was electroporated with 4UbFL plasmid and basal bioluminescence was measured after 24 hr using IVIS200 imager after injecting luciferin substrate. Mice were randomized (n=5/group) and treated with compounds in PEG400: Cremophor: Tween40 combination or vehicle alone as shown in Table 5 with one dose delivered by intraperitoneal injection. The mice were again imaged at 4 h, 24 h, 48 h post treatment.

DLD1 = experiment: MTT cytotoxicity assay, DLD1; conditions: Homo sapiens, DLD-1, read-out: cytotoxicity IC50 DLD1
Procedure: as §1

SUM1315 = experiment: cells; conditions: read-out: cytotoxicity IC50 SUM1315
Procedure: as §1

PEA2 = experiment: cells; conditions: read-out: cytotoxicity IC50 PEA2
Procedure: as §1

HEC-1A = experiment: MTT cytotoxicity assay, HEC-1A; conditions: read-out: cytotoxicity IC50 HEC-1A, Tables 3A/4B/4C
SKOV3-TR = experiment: MTT cytotoxicity assay, SKOV3-TR
DLD-BRCA2-Ve = experiment: MTT cytotoxicity assay, DLD-BRCA2-Ve; conditions: read-out: cytotoxicity IC50 DLD-BRCA2-Ve
Procedure: as §1

PEO14 = experiment: cells; conditions: read-out: cytotoxicity IC50 PEO14
Procedure: as §1

PEO1 = experiment: cells; conditions: Homo sapiens, PEO1, read-out: cytotoxicity IC50 PEO1
Procedure: as §1

MDA-MB-468 = experiment: cells; conditions: Homo sapiens, MDA-MB-468, read-out: cytotoxicity IC50 MDA-MB-468
Procedure: as §1

Mouse Skin Keratinocytes = experiment: MTT cytotoxicity assay, mouse skin keratinocytes; type: cell-based; conditions: Keratinocyte, read-out: IC50 Keratinocytes
Procedure: as §2

HeLa = experiment: MTT cytotoxicity assay, HeLa; conditions: read-out: cytotoxicity IC50 HeLa, Tables 3A/4B/4C
SSC90 = experiment: MTT cytotoxicity assay, SSC90
A2780 = experiment: MTT cytotoxicity assay, A2780
[1] = tested on: HFF (Human Foreskin Fibroblast); experiment: MTT cytotoxicity assay, HFF normal cells; type: cell-based; conditions: read-out: IC50 HFF
Procedure: as §2

OVCAR3 = experiment: MTT cytotoxicity assay, OVCAR3
ANBL6 = experiment: MTT cytotoxicity assay, ANBL6; type: cell-based; conditions: Homo sapiens, read-out: IC50 ANBL6
Procedure: (§3) The cytotoxic efficacy of selected compounds was assessed against multiple myeloma (MM) cell lines, as this is a validated clinical target for the licensed proteasome inhibitors.
as §2

ME180 = experiment: MTT cytotoxicity assay, ME180; type: cell-based; conditions: Homo sapiens, read-out: IC50 ME180
Procedure: as §2

RPMI8226-V10R = experiment: MTT cytotoxicity assay, RPMI8226-V10R; type: cell-based; conditions: read-out: IC50 RPMI8226-V10R
Procedure: as §3, §2

LNCaP = experiment: MTT cytotoxicity assay, LNCaP; conditions: Homo sapiens
RPMI8226 = experiment: MTT cytotoxicity assay, RPMI8226; type: cell-based; conditions: Homo sapiens, read-out: IC50 RPMI8226
Procedure: as §3, §2

MDA-MB231 = experiment: MTT cytotoxicity assay, MDA-MB231; type: cell-based; conditions: Homo sapiens, read-out: IC50 MDA-MB231
Procedure: as §2

HCC1806 = experiment: MTT cytotoxicity assay, HCC1806; type: cell-based; conditions: Homo sapiens, read-out: IC50 HCC1806
Procedure: as §2

[2] = SK-OV-3, read-out: cytotoxicity IC50 SKOV3
[3] = read-out: cytotoxicity IC50 HCT116, Tables 3A/4B/4C, MTT assay
[4] = read-out: cytotoxicity IC50 ES2, Tables 3A/4B/4C, MTT assay
[5] = read-out: cytotoxicity IC50 SKOV3-TR, Tables 3A/4B/4C, MTT assay
[6] = read-out: IC50 HCT116, Table 3, MTT, 48 hr, Colon
[7] = Table 3, MTT, 48 hr, normal Mouse Skin
[8] = read-out: cytotoxicity IC50 SSC90, Tables 3A/4B/4C, MTT assay
[9] = read-out: cytotoxicity IC50 A2780, Tables 3A/4B/4C, MTT assay
[10] = Table 3, MTT, 48 hr, normal Human Foreskin Fibroblast
[11] = read-out: cytotoxicity IC50 OVCAR3, Tables 3A/4B/4C, MTT assay
[12] = read-out: cytotoxicity IC50 LNCAP

| Compound | IC50 (TC1-Lu) [nM] | IC50 (SUM149) [nM] | IC50 (KLE) [nM] | IC50 (HCC1395) [nM] | IC50 (SKOV3; [2]) [nM] | IC50 (HCT116; [3]) [nM] | IC50 (ES2; [4]) [nM] | IC50 (PEA1) [nM] | NOAEL (in vivo) [mg/kg] | IC50 (DLD1) [nM] | IC50 (SUM1315) [nM] | IC50 (PEA2) [nM] | IC50 (HEC-1A) [nM] | IC50 (SKOV3-TR; [5]) [nM] | IC50 (PEO14) [nM] | IC50 (PEO1) [nM] | IC50 (MDA-MB-468) [nM] | IC50 (HeLa) [nM] | IC50 (A2780; [9]) [nM] | IC50 (OVCAR3; [11]) [nM] | also measured |
| --- | --- | --- | --- | --- | --- | --- | --- | --- | --- | --- | --- | --- | --- | --- | --- | --- | --- | --- | --- | --- | --- |
| C[C@H]1/C(=C\c2ccc([N+](=O)[O-])cc2)C(=O)/C(=C/c2ccc([N+](=O)[O-])cc2)CN1C(=O)[C@@H](N)Cc1ccccc1 | 114 | 20 | 1460 | 75 | 40 | 80 | 40 | 70 | 30 | 164 | 258 | 64 | 207 | 60 | 92 | 31 | 75 |  |  |  | IC50 (DLD-BRCA2-Ve): 55 nM |
| CC(C)C[C@H](NC(=O)[C@H](Cc1ccccc1)NC(=O)c1cnccn1)B(O)O [Bortezomib, bortezomib, reference compound] | 4.5 | 30 | 1190 |  | 1.5 |  |  | 30 | 0.75 | 4.8 |  | 30 | 153 |  | 30 | 31 |  | 3 | 3 | 30 | IC50 (HCT116; [6]): 3.2 nM; IC50 (Mouse Skin Keratinocytes; [7]): > 100 nM; IC50 (SSC90; [8]): 15 nM; IC50 [1, 10]: > 100 nM |
| N[C@@H](Cc1ccccc1)C(=O)N1C/C(=C\c2ccc([N+](=O)[O-])cc2)C(=O)/C(=C/c2ccc([N+](=O)[O-])cc2)C1 [RA183, reference compound] |  |  | 989 |  | 54 | 193 | 75 |  |  |  |  |  | 378 | 77 |  |  | 250 | 112 | 161 | 78 | IC50 (ANBL6; ANBL-6, 48 h): 58 nM; IC50 (SKOV3; SK-OV-3, 48 h, read-out: IC50 SKOV3): 54 nM; IC50 (HCT116; [6]): 193 nM; IC50 (ME180; ME-180, 48 h): 293 nM; IC50 (ES2; read-out: IC50 ES2, Table 3, MTT, 48 hr, Ovarian): 75 nM; IC50 (Mouse Skin Keratinocytes; Mus musculus, 48 h): > 1000 nM; IC50 (A2780; read-out: IC50 A2780, Table 3, MTT, 48 hr, Ovarian): 161 nM; IC50 (RPMI8226-V10R; 48 h): 139 nM; IC50 ([1]; Homo sapiens, Fibroblast, 48 h): > 1000 nM; IC50 (SKOV3-TR; read-out: IC50 SKOV3-TR, Table 3, MTT, 48 hr, Ovarian, paclitaxel resistant): 77 nM; IC50 (LNCaP; 48 h, read-out: IC50 LNCaP): 186 nM; IC50 (LNCaP; [12]): 186 nM; IC50 (RPMI8226; RPMI-8226, 48 h): 88 nM; IC50 (OVCAR3; read-out: IC50 OVCAR3, Table 3, MTT, 48 hr, Ovarian): 78 nM; IC50 (MDA-MB231; MDA-MB-231, 48 h): 124 nM; IC50 (HCC1806; HCC1806, 48 h): 44 nM |
| N[C@@H](Cc1ccccc1)C(=O)N1C/C(=C\c2ccc(Cl)c(Cl)c2)C(=O)/C(=C/c2ccc(Cl)c(Cl)c2)C1 [RA190, reference compound] |  | 233 | 1590 | 0.35 | 73 | 239 | 115 | 386 |  |  | 1370 | 396 | 431 | 109 | 375 | 232 | 300 | 85 | 139 | 120 | IC50 (ANBL6; ANBL-6, Table 3, MTT, 48 hr, Multiple Myeloma): 67 nM; IC50 (ME180; ME-180, Table 3, MTT, 48 hr, Cervical (HPV +ve)): 183 nM; IC50 (Mouse Skin Keratinocytes; [7]): > 1000 nM; IC50 (SSC90; [8]): 625 nM; IC50 (RPMI8226-V10R; Table 3, MTT, 48 hr, Multiple Myeloma, bortezomib resistant): 47 nM; IC50 [1, 10]: > 1000 nM; IC50 (LNCaP; [12]): 242 nM; IC50 (RPMI8226; RPMI-8226, Table 3, MTT, 48 hr, Multiple Myeloma): 45 nM; IC50 (MDA-MB231; MDA-MB-231, Table 3, MTT, 48 hr, Triple Negative Breast): 134 nM; IC50 (HCC1806; HCC1806, Table 3, MTT, 48 hr, Triple Negative Breast): 52 nM |
| O=C(CCl)N[C@@H](Cc1ccccc1)C(=O)N1C/C(=C\c2ccc([N+](=O)[O-])cc2)C(=O)/C(=C/c2ccc([N+](=O)[O-])cc2)C1 [RA375] |  |  |  |  | 26 | 89 |  |  |  | 24 | 19 | 60 |  | 22 |  | 27 |  |  |  |  | IC50 (ANBL6; ANBL-6, 48 h): 12 nM; IC50 (ME180; ME-180, 48 h): 20 nM; IC50 (ES2; read-out: IC50 ES2): 19 nM; IC50 (Mouse Skin Keratinocytes; Mus musculus, 48 h): > 1000 nM; IC50 (SSC90; read-out: IC50 SSC90): 24 nM; IC50 (RPMI8226-V10R; 48 h): 6 nM; IC50 ([1]; Homo sapiens, Fibroblast, 48 h): > 1000 nM; IC50 (DLD-BRCA2-Ve): 18 nM; IC50 (LNCaP; 48 h, read-out: IC50 LNCaP): 60 nM; IC50 (RPMI8226; RPMI-8226, 48 h): 9 nM; IC50 (OVCAR3; read-out: IC50 OVCAR3): 17 nM; IC50 (MDA-MB231; MDA-MB-231, 48 h): 22 nM; IC50 (HCC1806; HCC1806, 48 h): 17 nM |
| CC1/C(=C\c2ccc([N+](=O)[O-])cc2)C(=O)/C(=C/c2ccc([N+](=O)[O-])cc2)CN1C(=O)[C@H](Cc1ccccc1)NC(=O)CCl (stereo partly drawn) [RA414] | 40 | < 20 | 1120 | < 15 | < 20 | 20 | 7.5 | 30 | 3 | < 40 | 20 | 30 | 196 | < 20 | 30 | 30 | < 20 | 3 | 3.5 | < 20 | IC50 (SSC90; [8]): < 20 nM; IC50 (DLD-BRCA2-Ve): < 40 nM; IC50 (LNCaP; [12]): 24 nM |

— US12673918B2, “Small molecule RPN13 inhibitors with antitumor properties” (The Johns Hopkins University, priority 2019, dated 2026)
